Measurements as given in PMC7554656 (Molecular Metabolism, 2020).
pEC50: −log10 of the molar value.

Molecular target: T1, SGLT2 (sodium-glucose cotransporter 2) (Homo sapiens, UniProt P31639)
T1 sequence (P31639 1-672): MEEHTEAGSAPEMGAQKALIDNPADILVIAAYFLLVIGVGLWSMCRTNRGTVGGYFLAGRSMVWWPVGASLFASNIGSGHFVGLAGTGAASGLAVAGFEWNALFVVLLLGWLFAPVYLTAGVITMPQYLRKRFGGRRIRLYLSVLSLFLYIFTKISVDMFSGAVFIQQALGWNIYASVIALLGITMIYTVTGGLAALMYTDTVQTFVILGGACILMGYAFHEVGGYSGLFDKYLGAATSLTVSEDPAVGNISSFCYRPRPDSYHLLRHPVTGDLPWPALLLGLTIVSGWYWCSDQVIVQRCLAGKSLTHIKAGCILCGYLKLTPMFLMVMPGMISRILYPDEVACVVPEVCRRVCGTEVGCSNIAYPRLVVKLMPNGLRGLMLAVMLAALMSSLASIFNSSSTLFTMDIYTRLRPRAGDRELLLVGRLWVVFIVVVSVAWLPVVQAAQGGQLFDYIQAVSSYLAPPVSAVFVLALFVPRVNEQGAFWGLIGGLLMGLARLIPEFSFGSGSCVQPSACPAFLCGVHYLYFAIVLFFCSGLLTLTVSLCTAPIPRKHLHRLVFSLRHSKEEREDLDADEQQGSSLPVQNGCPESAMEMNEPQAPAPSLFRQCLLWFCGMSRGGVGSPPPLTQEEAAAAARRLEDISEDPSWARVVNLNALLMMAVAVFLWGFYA
Assay: inhibition of […]-alpha-methyl-D-glucopyranoside uptake in HEK293-hSGLT2 cells
Type: cell-based

pEC50: 8.37
Compound: OC[C@H]1O[C@@H](c2ccc(Cl)c(Cc3ccc(O[C@H]4CCOC4)cc3)c2)[C@H](O)[C@@H](O)[C@@H]1O [empagliflozin]
